Laboratory results: patent publication US12568967B2, “Compositions comprising pyridine carboxylate herbicides with synthetic auxin herbicides or auxin transport inhibitors” (priority 2018, dated 2026)
Where two headings read alike, the source gives them in different places.

How the values were obtained:
[1] = system: Brassica napus (winter rape, BRSNW); assay: Greenhouse postemergence trial BRSNW; type: in vivo
[2] = system: Stellaria media (chickweed, STEME); assay: Greenhouse postemergence trial STEME; type: in vivo
[3] = system: Matricaria chamomilla (wild chamomile, MATCH); assay: Greenhouse postemergence trial MATCH; type: in vivo; details: for % visual injury (Obs): alone 280 g/ha;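 on all read-outs here: greenhouse plants sprayed at second to third true leaf stage, injury rated by eye 20-22 d later versus solvent-blank controls on 0–100 scale, 0 no injury, 100 complete kill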
[4] = system: Abutilon theophrasti (velvetleaf, ABUTH); assay: Greenhouse postemergence trial ABUTH; type: in vivo; details: Dichlorprop-K 280 g/ha (Table 40)
Protocol: (§1) Seeds of the desired test plant species were planted in a 90:10% v/v (volume/volume) mixture of PRO-MIX® BX (Premier Tech Horticulture, Quakertown, PA, USA) and PROFILE® GREENS GRADE™ (Profile Products LLC, Buffalo Grove, IL, USA) planting mixture, which typically has a pH of 5.2 to 6.2 and an organic matter content of at least 50 percent, in plastic pots with a surface area of 103.2 square centimeters (cm^2). […] The plants were grown for 7-36 days (d) in a greenhouse with an approximate 14-hour (h) photo-period which was maintained at about 23° C. during the day and 22° C. during the night. Nutrients and water were added on a regular basis and supplemental lighting was provided with overhead metal halide 1000-Watt lamps as necessary. The plants were employed for testing when they reached the second or third true leaf stage.
(§2) Emulsifiable concentrates of each of each pyridine carboxylate herbicide (Compound A or Compound B) were prepared at 100 grams acid equivalent per liter (g ae/L). The emulsifiable concentrates also included a safener, cloquintocet-mexyl, at 120 grams active ingredient per liter (g ai/L), unless otherwise noted below. An aliquot of each emulsifiable concentrate was placed in a 25 mL glass vial and diluted with an aqueous mixture of 1.25% (v/v) ACTIROB® B esterified rapeseed oil (Bayer Crop Science, Research Triangle Park, NC, USA) or MSO® Concentrate with LECI-TECH® methylated soybean oil (Loveland Products, Loveland, CO, USA) to obtain concentrated stock solutions at the highest application rate for each herbicide, based upon a 12 milliliter (mL) application volume at a rate of 187 liters per hectare (L/ha). The concentrated stock solutions were further diluted with an aqueous mixture of 1.25% v/v ACTIROB® B or MSO® Concentrate with LECI-TECH® to obtain stock solutions at reduced application rates for each herbicide. Spray solutions of the herbicide combinations (Compound A or Compound B plus synthetic auxin herbicide or auxin transport inhibitor) were prepared by adding weighed amounts or aliquots of the synthetic auxin herbicide or auxin transport inhibitor to the stock solutions of Compound A or Compound B to form 12-mL spray solutions in two-way combinations.
(§3) The spray solutions were applied to the plant material with an overhead Mandel track sprayer equipped with 8002E nozzles calibrated to deliver 187 L/ha over an application area of 0.503 square meters (m^2) at a spray height of 18 inches (43 centimeters (cm)) above the average plant canopy. Control plants were sprayed in the same manner with the solvent blank. All pyridine carboxylate herbicide (component a) application rates are given as “g ae/ha” and all synthetic auxin herbicide or auxin transport inhibitor (component b) application rates are given as “g ai/ha.”
(§4) The treated plants and control plants were placed in a greenhouse as described above and watered by sub-irrigation to prevent wash-off of the test compounds. After 20-22 d, the condition of the test plants as compared with that of the control plants was determined visually and scored on a scale of 0 to 100 percent where 0 corresponds to no injury and 100 corresponds to complete kill.

[5] = system: Cirsium arvense (Canadian thistle, CIRAR); assay: Greenhouse postemergence trial CIRAR; type: in vivo
Protocol: as §1, §2, §3, §4

[6] = system: Glycine max (volunteer soybean, GLXMA); assay: Greenhouse postemergence trial GLXMA; type: in vivo; details: Dichlorprop-K 280 g/ha (Table 40)
[7] = system: Ipomoea hederacea (ivyleaf morningglory, IPOHE); assay: Greenhouse postemergence trial IPOHE; type: in vivo; details: Dichlorprop-K 280 g/ha (Table 40)
[8] = system: Polygonum convolvulus (wild buckwheat, POLCO); assay: Greenhouse postemergence trial POLCO; type: in vivo; details: for % visual injury (Obs): alone 280 g/ha
[9] = system: Helianthus annuus (common sunflower, HELAN); assay: Greenhouse postemergence trial HELAN; type: in vivo; details: Dichlorprop-K 280 g/ha (Table 40)
Protocol: as §1, §2, §3, §4

[10] = system: Amaranthus retroflexus (pigweed, AMARE); assay: Greenhouse postemergence trial AMARE; type: in vivo; details: for % visual injury (Obs): AMARE, alone 280 g/ha;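 on all read-outs here: Greenhouse-grown plants sprayed at second to third true leaf stage, injury rated by eye after 20-22 d versus solvent-blank sprayed controls, 0 = no injury, 100 = complete kill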
[11] = system: Chenopodium album L. (common lambsquarters, CHEAL); assay: Greenhouse postemergence trial CHEAL; type: in vivo; details: for % visual injury (Obs): CHEAL, alone 280 g/ha;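 on all read-outs here: greenhouse plants sprayed at second to third true leaf stage, injury rated by eye after 20-22 d versus solvent-blank sprayed controls, 0 = no injury, 100 = complete kill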
Protocol: (§5) The plants were grown for 7-36 days (d) in a greenhouse with an approximate 14-hour (h) photo-period which was maintained at about 23° C. during the day and 22° C. during the night. Nutrients and water were added on a regular basis and supplemental lighting was provided with overhead metal halide 1000-Watt lamps as necessary. The plants were employed for testing when they reached the second or third true leaf stage.
(§6) The emulsifiable concentrates also included a safener, cloquintocet-mexyl, at 120 grams active ingredient per liter (g ai/L), unless otherwise noted below.
(§7) Control plants were sprayed in the same manner with the solvent blank. All pyridine carboxylate herbicide (component a) application rates are given as “g ae/ha” and all synthetic auxin herbicide or auxin transport inhibitor (component b) application rates are given as “g ai/ha.”
as §4

[12] = system: Rumex obtusifolius (broad-leaf dock, RUMOB); assay: Greenhouse postemergence trial RUMOB; type: in vivo
Protocol: as §1, §2, §3, §4

[13] = system: Sinapis arvensis (wild mustard, SINAR); assay: Greenhouse postemergence trial SINAR; type: in vivo; details: SINAR
[14] = system: Viola tricolor (wild pansy, VIOTR); assay: Greenhouse postemergence trial VIOTR;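 further: greenhouse plants sprayed at second to third true leaf stage, injury rated visually after 20-22 d against solvent-blank sprayed controls, 0 meaning no injury and 100 complete kill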
Protocol: as §1, §2, §3, §4

[15] = system: Kochia scoparia (kochia, KCHSC); assay: Greenhouse postemergence trial KCHSC; type: in vivo; details: for % visual injury (Obs): alone 280 g/ha
[16] = system: Papaver rhoeas (corn poppy, PAPRH); assay: Greenhouse postemergence trial PAPRH; type: in vivo; details: Papaver rhoeas, post-emergence, read-out: % visual injury Obs
[17] = system: Cyanus segetum (cornflower, CENCY); assay: Greenhouse postemergence trial CENCY; type: in vivo; details: Centaurea cyanus, post-emergence, read-out: % visual injury Obs
Protocol: as §1, §2, §3, §4

[18] = system: Matricaria discoidea (pineapple weed, MATMT); assay: Greenhouse postemergence trial MATMT; type: in vivo
[19] = system: Veronica persica (bird's-eye speedwell, VERPE); assay: Greenhouse postemergence trial VERPE; type: in vivo
[20] = system: Veronica hederifolia (ivyleaf speedwell, VERHE); assay: Greenhouse postemergence trial VERHE; type: in vivo
[21] = system: Triticum aestivum (winter wheat, TRZAW); assay: Greenhouse postemergence crop phytotoxicity TRZAW; type: in vivo; details: TRZAW
Protocol: as §1, §2, §3, §4

[22] = system: Salsola kali (Russian thistle, SASKR); assay: Greenhouse postemergence trial SASKR; type: in vivo; details: SASKR;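 further: greenhouse plants sprayed at second or third true leaf stage, injury rated by eye after 20-22 d against solvent-blank controls, 0 meaning no injury, 100 complete kill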
Protocol: as §5, §6, §7, §4

[23] = system: Matricaria inodora (false chamomile, MATIN); assay: Greenhouse postemergence trial MATIN; type: in vivo; details: Tripleurospermum inodorum, post-emergence, read-out: % visual injury Obs
[24] = system: Hordeum vulgare (winter barley, HORVW); assay: Greenhouse postemergence crop phytotoxicity HORVW; type: in vivo; details: HORVW
Protocol: as §1, §2, §3, §4

[25] = system: Lamium purpureum (purple deadnettle, LAMPU); assay: Greenhouse postemergence trial LAMPU; details: Lamium purpureum, post-emergence, read-out: % visual injury Obs
[26] = system: Brassica napus (spring rape, BRSNN); assay: Greenhouse postemergence trial BRSNN; type: in vivo
Protocol: as §5, §6, §7, §4

[27] = system: Triticum aestivum (spring wheat, TRZAS); type: in vivo; details: TRZAS
Protocol: as §1, §2, §3, §4

[28] = system: Hordeum vulgare (spring barley, HORVS); type: in vivo; details: HORVS
[29] = system: Papaver rhoeas (corn poppy), herbicide-resistant (PAPRH-R); assay: Greenhouse postemergence trial PAPRH-R; type: in vivo
[30] = system: Anthemis arvensis (field chamomile, ANTAR); assay: Greenhouse postemergence trial ANTAR; type: in vivo; details: Anthemis arvensis, post-emergence, read-out: % visual injury Obs
[31] = system: Capsella bursa-pastoris (shepherd's purse, CAPBP); assay: Greenhouse postemergence trial CAPBP; type: in vivo; details: Capsella bursa-pastoris, post-emergence, read-out: % visual injury Obs
[32] = system: Viola arvensis (field violet, VIOAR); assay: Greenhouse postemergence trial VIOAR; type: in vivo; details: Viola arvensis, post-emergence, read-out: % visual injury Obs
[33] = Dichlorprop-K 280 g/ha (Table 40)
[34] = c2-3 Compound A 7.5/10, c4 Florpyrauxifen-benzyl 10, c5-6 A 7.5/10 + Florpyrauxifen-benzyl 10 g/ha
[35] = Viola tricolor, post-emergence, read-out: % visual injury Obs

## CC(Oc1ccc(Cl)cc1Cl)C(=O)[O-].[K+] (stereo not shown) [Dichlorprop-K]
[1]; BRSNW, alone 280 g/ha
  % visual injury (Obs): 63%
[2]; [33]
  STEME % visual injury Obs: 0%
[3]; MATCH
  % visual injury (Obs): 20%
[4]
  ABUTH % visual injury Obs: 40%
[5]; CIRAR, alone 280 g/ha
  % visual injury (Obs): 15%
[5]; [33]
  CIRAR % visual injury Obs: 63%
[6]
  GLXMA % visual injury Obs: 33%
[7]
  IPOHE % visual injury Obs: 75%
[8]; [33]
  POLCO % visual injury Obs: 0%
[8]; POLCO
  % visual injury (Obs): 18%
[9]
  HELAN % visual injury Obs: 90%
[10]
  % visual injury (Obs): 85%
[10]; [33]
  AMARE % visual injury Obs: 10%
[11]
  % visual injury (Obs): 70%
[11]; [33]
  CHEAL % visual injury Obs: 60%
[12]; [33]
  RUMOB % visual injury Obs: 73%
[13]; alone 280 g/ha
  % visual injury (Obs): 78%
[14]; [33]
  VIOTR % visual injury Obs: 65%
[15]; [33]
  KCHSC % visual injury Obs: 63%
[15]; KCHSC
  % visual injury (Obs): 60%

## COc1c(Cl)ccc(-c2nc(C(=O)OCc3ccccc3)c(Cl)c(N)c2F)c1F [Florpyrauxifen-benzyl, florpyrauxifen-benzyl, reference compound]
[1]; Brassica napus, post-emergence, read-out: % visual injury Obs
  plant injury at 20 g/ha: 40%
[2]; Stellaria media, post-emergence, read-out: % visual injury Obs
  pest or weed control at 20 g/ha: 100%
[16]
  pest or weed control at 20 g/ha: 70%
[17]
  pest or weed control at 20 g/ha: 100%
[18]; Matricaria discoidea, post-emergence, read-out: % visual injury Obs
  pest or weed control at 20 g/ha: 50%
[3]; Matricaria chamomilla, post-emergence, MATCH, Florpyrauxifen-benzyl 20 g/ha, read-out: % visual injury Obs
  pest or weed control at 20 g/ha: 35%
[19]; Veronica persica, post-emergence, read-out: % visual injury Obs
  pest or weed control at 20 g/ha: 10%
[5]; Cirsium arvense, post-emergence, CIRAR, Florpyrauxifen-benzyl 20 g/ha, read-out: % visual injury Obs
  pest or weed control at 20 g/ha: 70%
[20]; Veronica hederifolia, post-emergence, read-out: % visual injury Obs
  pest or weed control at 20 g/ha: 20%
[21]; Florpyrauxifen-benzyl 20 g/ha
  % visual injury Obs: 0%
[22]; Salsola kali, post-emergence, Florpyrauxifen-benzyl 20 g/ha, read-out: % visual injury Obs
  pest or weed control at 20 g/ha: 70%
[8]; Fallopia convolvulus, post-emergence, read-out: % visual injury Obs
  pest or weed control at 20 g/ha: 85%
[23]
  pest or weed control at 20 g/ha: 50%
[24]; Florpyrauxifen-benzyl 20 g/ha
  % visual injury Obs: 0%
[25]
  pest or weed control at 20 g/ha: 97%
[26]; [34]
  % visual injury, Obs: 25%
[12]; [34]
  % visual injury, Obs: 33%
[13]; Mutarda arvensis, post-emergence, Florpyrauxifen-benzyl 20 g/ha, read-out: % visual injury Obs
  pest or weed control at 20 g/ha: 90%
[14]; [35]
  pest or weed control at 20 g/ha: 70%
[15]; Bassia scoparia, post-emergence, KCHSC, Florpyrauxifen-benzyl 20 g/ha, read-out: % visual injury Obs
  pest or weed control at 20 g/ha: 65%
[27]; Florpyrauxifen-benzyl 20 g/ha
  % visual injury Obs: 0%
[28]; Florpyrauxifen-benzyl 20 g/ha
  % visual injury Obs: 0%
[29]; Papaver rhoeas, post-emergence, read-out: % visual injury Obs
  pest or weed control at 20 g/ha: 60%
[30]
  pest or weed control at 20 g/ha: 100%
[31]
  pest or weed control at 20 g/ha: 80%
[32]
  pest or weed control at 20 g/ha: 10%

## O=C(O)COc1nc(Cl)c(Cl)cc1Cl [Triclopyr]
[1]; Brassica napus, post-emergence, BRSNW, alone, 560 g/ha, read-out: % visual injury Obs
  plant injury at 560 g/ha: 60%
[1]; Triclopyr 45 g/ha (Table 39)
  BRSNW % visual injury Obs: 10%
[1]; Triclopyr 60 g/ha (Table 39)
  BRSNW % visual injury Obs: 10%
[2]; Stellaria media, post-emergence, STEME, alone, 560 g/ha, read-out: % visual injury Obs
  pest or weed control at 560 g/ha: 30%
[16]; PAPRH, alone, 560 g/ha
  pest or weed control at 560 g/ha: 20%
[17]; CENCY, alone, 560 g/ha
  pest or weed control at 560 g/ha: 100%
[18]; Matricaria discoidea, post-emergence, MATMT, alone, 560 g/ha, read-out: % visual injury Obs
  pest or weed control at 560 g/ha: 10%
[18]; Triclopyr 45 g/ha (Table 39)
  MATMT % visual injury Obs: 20%
[18]; Triclopyr 60 g/ha (Table 39)
  MATMT % visual injury Obs: 25%
[3]; MATCH
  % visual injury (Obs): 5%
[3]; Matricaria chamomilla, post-emergence, MATCH, alone, 560 g/ha, read-out: % visual injury Obs
  pest or weed control at 560 g/ha: 40%
[3]; Triclopyr 45 g/ha (Table 39)
  MATCH % visual injury Obs: 10%
[3]; Triclopyr 60 g/ha (Table 39)
  MATCH % visual injury Obs: 10%
[19]; Triclopyr 45 g/ha (Table 39)
  VERVE % visual injury Obs: 0%
[19]; Triclopyr 60 g/ha (Table 39)
  VERVE % visual injury Obs: 0%
[19]; Veronica persica, post-emergence, VERPE, alone, 560 g/ha, read-out: % visual injury Obs
  pest or weed control at 560 g/ha: 60%
[5]; Cirsium arvense, post-emergence, CIRAR, alone, 560 g/ha, read-out: % visual injury Obs
  pest or weed control at 560 g/ha: 75%
[20]; Triclopyr 45 g/ha (Table 39)
  VERHE % visual injury Obs: 10%
[20]; Triclopyr 60 g/ha (Table 39)
  VERHE % visual injury Obs: 15%
[20]; Veronica hederifolia, post-emergence, VERHE, alone, 560 g/ha, read-out: % visual injury Obs
  pest or weed control at 560 g/ha: 65%
[21]; alone, 560 g/ha
  % visual injury Obs: 0%
[22]; alone 280 g/ha
  % visual injury (Obs): 45%
[22]; Salsola kali, post-emergence, alone, 560 g/ha, read-out: % visual injury Obs
  pest or weed control at 560 g/ha: 50%
[8]; Fallopia convolvulus, post-emergence, POLCO, alone, 560 g/ha, read-out: % visual injury Obs
  pest or weed control at 560 g/ha: 30%
[8]; POLCO
  % visual injury (Obs): 13%
[23]; MATIN, alone, 560 g/ha
  pest or weed control at 560 g/ha: 0%
[24]; alone, 560 g/ha
  % visual injury Obs: 0%
[25]
  pest or weed control at 560 g/ha: 65%
[10]
  % visual injury (Obs): 45%
[11]
  % visual injury (Obs): 53%
[26]; BRSNN, alone 280 g/ha
  % visual injury (Obs): 50%
[13]; Mutarda arvensis, post-emergence, alone, 560 g/ha, read-out: % visual injury Obs
  pest or weed control at 560 g/ha: 100%
[14]; [35]
  pest or weed control at 560 g/ha: 70%
[15]; Bassia scoparia, post-emergence, KCHSC, alone, 560 g/ha, read-out: % visual injury Obs
  pest or weed control at 560 g/ha: 75%
[15]; KCHSC
  % visual injury (Obs): 23%
[27]; alone 280 g/ha
  % visual injury (Obs): 0%
[27]; alone, 560 g/ha
  % visual injury Obs: 0%
[28]; alone 280 g/ha
  % visual injury (Obs): 0%
[28]; alone, 560 g/ha
  % visual injury Obs: 0%
[29]; Papaver rhoeas, post-emergence, PAPRH-R, alone, 560 g/ha, read-out: % visual injury Obs
  pest or weed control at 560 g/ha: 50%
[29]; Triclopyr 45 g/ha (Table 39)
  PAPRH-R % visual injury Obs: 10%
[29]; Triclopyr 60 g/ha (Table 39)
  PAPRH-R % visual injury Obs: 10%
[30]; ANTAR, alone, 560 g/ha
  pest or weed control at 560 g/ha: 40%
[31]; CAPBP, alone, 560 g/ha
  pest or weed control at 560 g/ha: 75%
[32]; VIOAR, alone, 560 g/ha
  pest or weed control at 560 g/ha: 25%
